The subject of assay [1] is isolated aorta from spontaneously hypertensive rats. As to the kind of experiment: Relaxant effect on aortic rings precontracted by phenylephrine. Also noted: species or system rat. To be noted: 100 micro-molar each component, final concentration in organ chamber; rings precontracted by phenylephrine (1 micromolar); n=8. As for the experimental part: The objective of this study was to investigate the vasoarelaxation effects of the compositions of the invention using isolated aorta from spontaneously hypertensive rats. The compounds tested were used at a concentration expressed as final concentration in the organ chamber. Male spontaneously hypertensive rats (SHR) 10-12 weeks old, weighing 250-300 g, were housed at 24±2° C. with 60±20% relative humidity, on a 12-h light-dark cycle. Rats were given free access to a diet of standard food and water. All experiments were performed according to the guidelines for the ethical treatment of animals of the European Union. The rats were killed by cervical dislocation and the aortae were rapidly dissected. […] Aortic rings were mounted under a basal tension of 2 g in 20 mL organ baths containing PSS and attached to an isometric transducer (Harvard UF-1); the signal was recorded by a Powerlab data acquisition system (AD-Instruments). […] The relaxant effect of compounds tested was assessed by adding the compound to aortic rings precontracted by phenylephrine (1 micromolar). […] All the results were expressed as a percentage of the maximal contraction of phenylephrine-induced responses. Results are expressed as percentages from the initial precontraction level. The significance was calculated on the actual contraction values means±SE (n=8 aorta preparations per group). […]

The subject of assay [2] is recto-anus swelling induced by croton oil. As to the kind of experiment: Croton oil-induced hemorrhoid model in rats (swelling of the recto-anus, RAC). Conditions: with croton oil (3%) induction, 24 h after induction; oral once per day for five days; 20 mg/kg carnitines, 30 mg/kg flavonoids; male SD rats, n = 5. Format: in vivo, rat. How it is done: Male SD rats (6 weeks old, approximately 140 g) were purchased from Harlan Sprague Dawley and allowed to acclimate for 1 week. The rats were maintained in a pathogen-free facility in accordance with the National Research Council of Laboratory Animal care and use guidelines. Each experiment was preformed with age-matched rats 7-8 weeks old. The croton oil-induced hemorrhoid model in rats was performed according to the method published by Nishiki (Nishiki et al. (1988) Folia Pharmacology Japan 92:215-225; Nishiki et al. (1988) Folia Pharmacol. Japan 92:227-240). Briefly, a cotton swab with a diameter of 4 mm soaked with 0.16 mL of inducer (deionized water:pyridine:ethyl ether:6% croton oil/ethyl ether (1:4:5:10) was applied to the rat's anus for 12 seconds. The final concentration of croton oil was 3%. The edema developed linearly until 7-8 hours after application and the severity of the edema was sustained for more than 24 hours. Twenty-four hours later, recto-anus tissue (approx. 10 mm long) was isolated after the rats were euthanized. The weights of rat body and recto-anus were measured. The recto-anus coefficient (RAC) was calculated using the formula: weight of recto-anus (mg)/body weight (g). […]
Twenty-four hours after hemorrhoid induction with croton oil the RAC of rats was determined.

`COc1ccc([C@@H]2CC(=O)c3c(O)cc(O[C@@H]4O[C@H](CO[C@@H]5O[C@@H](C)[C@H](O)[C@@H](O)[C@H]5O)[C@@H](O)[C@H](O)[C@H]4O)cc3O2)cc1O` [Hesperidine, hesperidine]: the “% RELAXATION” value in assay [1] is recorded as 9%. In addition, the “RAC (recto-anus coefficient: weight of recto-anus (mg)/body weight (g))” value in assay [2] amounted to 2.07.

On to `CCC(=O)O[C@H](CC(=O)[O-])C[N+](C)(C)C` [Propionyl L-carnitine, propionyl L-carnitine], for which the “% RELAXATION” value in assay [1] was determined as 28%. The “RAC (recto-anus coefficient: weight of recto-anus (mg)/body weight (g))” value in assay [2] worked out at 1.96.

These data come from patent US9457037B2, “Combination composition, comprising as active ingredients L-carnitine or propionyl L-carnitine, for the prevention or treatment of chronic venous insufficiency” (SIGMA-TAU INDUSTRIE FARMACEUTICHE RIUNITE S.P.A., priority 2010, dated 2016).
